Results: patent EP1247803A2, “Indolinone compounds suitable for modulation of protein kinases” (Sugen, Inc., priority 1996, dated 1998)

Target: T1, EGFR (Homo sapiens, UniProt P00533)
T1 construct: Add 7 ug A431 cell lysate per well (EGFR source); endogenous in cells; host or cells: A431
Assay: EGFR ELISA assay (in vitro kinase activity, EGFR captured from A431 cell lysate)
Type: biochemical
Set-up: concentration or dose not given beside the values
Outline: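 Receptor autophosphorylation was read by ELISA: anti-phosphotyrosine serum and an HRP-linked secondary with ABTS substrate, absorbance at 410 nm (reference 630 nm). The reaction ran 5 min with 3 µM ATP and 5 mM MnCl2 and was quenched by 20 mM EDTA. Compounds were first incubated 30 min with antibody-captured EGFR from A431 cell lysate.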

T1 sequence (P00533 25-1210): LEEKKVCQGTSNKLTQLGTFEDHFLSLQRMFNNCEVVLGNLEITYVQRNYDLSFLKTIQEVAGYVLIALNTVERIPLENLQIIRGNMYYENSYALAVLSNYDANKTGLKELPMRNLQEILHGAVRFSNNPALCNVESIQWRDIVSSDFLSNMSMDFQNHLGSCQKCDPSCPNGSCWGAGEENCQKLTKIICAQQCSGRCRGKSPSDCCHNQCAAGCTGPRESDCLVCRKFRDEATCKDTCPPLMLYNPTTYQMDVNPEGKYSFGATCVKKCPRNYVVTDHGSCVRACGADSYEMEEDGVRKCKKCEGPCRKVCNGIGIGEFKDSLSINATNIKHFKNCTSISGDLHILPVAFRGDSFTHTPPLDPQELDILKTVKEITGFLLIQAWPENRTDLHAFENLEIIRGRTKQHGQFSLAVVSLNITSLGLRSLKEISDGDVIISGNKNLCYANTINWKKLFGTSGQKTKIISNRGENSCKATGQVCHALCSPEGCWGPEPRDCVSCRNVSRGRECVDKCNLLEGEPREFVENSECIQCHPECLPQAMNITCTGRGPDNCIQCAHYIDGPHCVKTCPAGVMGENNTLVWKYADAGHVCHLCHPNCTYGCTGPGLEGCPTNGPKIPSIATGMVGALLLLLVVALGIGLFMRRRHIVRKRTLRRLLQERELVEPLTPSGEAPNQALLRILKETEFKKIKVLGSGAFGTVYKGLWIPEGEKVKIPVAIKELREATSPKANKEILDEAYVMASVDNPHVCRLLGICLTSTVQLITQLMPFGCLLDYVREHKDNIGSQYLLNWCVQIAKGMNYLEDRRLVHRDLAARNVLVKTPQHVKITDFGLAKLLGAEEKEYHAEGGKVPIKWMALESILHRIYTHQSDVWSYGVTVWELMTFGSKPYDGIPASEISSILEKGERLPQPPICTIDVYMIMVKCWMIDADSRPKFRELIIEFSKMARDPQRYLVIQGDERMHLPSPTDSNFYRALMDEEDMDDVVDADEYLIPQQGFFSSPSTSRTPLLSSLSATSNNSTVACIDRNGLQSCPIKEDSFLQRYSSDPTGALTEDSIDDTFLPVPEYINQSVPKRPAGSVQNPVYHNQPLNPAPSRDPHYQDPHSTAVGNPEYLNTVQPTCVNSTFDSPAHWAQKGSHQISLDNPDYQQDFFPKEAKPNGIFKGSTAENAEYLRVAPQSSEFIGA

Row | Structure (SMILES) | Biochem EGFR %Inhibition [%]
1 | Cc1c(Br)ccc2c1C(=Cc1coc3ccc(Cl)cc3c1=O)C(=O)N2 [10730/C06] | 8.5
2 | O=C1Nc2ccc(S(=O)(=O)Nc3ccc(C(F)(F)F)cc3)cc2C1=Cc1ccncc1 [10729/E09] | 29.6
3 | O=C1Nc2ccc(S(=O)(=O)Nc3ccc(C(F)(F)F)cc3)cc2C1=Cc1coc2ccc(Cl)cc2c1=O [10730/E06] | 1.5
4 | COc1cc(Br)c(O)c(C=C2C(=O)Nc3ccc(Br)c(C)c32)c1 [10718/C03] | 41.3
5 | O=C1Nc2ccc(I)cc2C1=Cc1ccc([N+](=O)[O-])o1 [10718/B11] | 30.3
6 | O=C1Nc2ccc(I)cc2C1=Cc1ccc(-c2ccccc2Cl)o1 [10730/B07] | 57.1
7 | CNS(=O)(=O)c1ccc2c(c1)C(=Cc1coc3ccc(Cl)cc3c1=O)C(=O)N2 [10730/D06] | 35.3
8 | COc1ccc(C=C2C(=O)Nc3ccc(I)cc32)c(OC)c1OC [10730/B02] | 10.4
9 | Cc1c(Br)ccc2c1C(=Cc1ccc3ccccc3c1O)C(=O)N2 [10718/C04] | 14.8
10 | O=C1Nc2ccc(I)cc2C1=Cc1coc2ccc(Cl)cc2c1=O [10730/B06] | 25.0
11 | CNS(=O)(=O)c1ccc2c(c1)C(=Cc1ccc(-c3ccccc3Cl)o1)C(=O)N2 [10730/D07] | 43.0
12 | COC1CC(C=C2C(=O)Nc3ccc(I)cc32)C(OC)O1 (stereo not shown) [10730/B10] | 15.8
13 | CC(=O)n1cc(C=C2C(=O)Nc3ccc(I)cc32)c2ccccc21 [10730/B05] | 8.5
14 | CC(=O)n1cc(C=C2C(=O)Nc3c(Br)cc(Br)cc32)c2ccccc21 [10730/A05] | 18.6
15 | COc1cc(C=C2C(=O)Nc3ccc(I)cc32)cc(OC)c1OC [10730/B04] | 36.5
16 | O=C1Nc2ccc(S(=O)(=O)N3CCOCC3)cc2C1=Cc1ccc(-c2ccccc2Cl)o1 [10730/F07] | 27.3
17 | Cc1c(Br)ccc2c1C(=Cc1coc3c(Br)cc(Br)cc3c1=O)C(=O)N2 [10730/C09] | 28.2
18 | O=C1Nc2ccc(CCCl)cc2C1=Cc1cccnc1 [10729/G08] | 6.0
19 | O=C1Nc2ccc(S(=O)(=O)Nc3ccc(C(F)(F)F)cc3)cc2C1=Cc1cccnc1 [10729/E08] | 40.1
20 | O=C1Nc2ccc(S(=O)(=O)N3CCOCC3)cc2C1=Cc1coc2ccc(Cl)cc2c1=O [10730/F06] | -0.6
21 | O=C1Nc2ccc(CCCl)cc2C1=Cc1ccc(N2CCCC2)cc1 [10729/G10] | 60.1
22 | O=C1Nc2ccc(S(=O)(=O)Nc3ccc(C(F)(F)F)cc3)cc2C1=Cc1cc2ccccc2nc1Cl [10730/E08] | 6.2
23 | Cc1ccsc1C=C1C(=O)Nc2ccc(CCCl)cc21 [10729/G05] | 4.4
24 | CC(=O)n1cc(C=C2C(=O)Nc3ccc(Br)c(C)c32)c2ccccc21 [10730/C05] | -9.8
25 | COC1CC(C=C2C(=O)Nc3c(Br)cc(Br)cc32)C(OC)O1 (stereo not shown) [10730/A10] | 56.1
26 | Cc1cc(C=C2C(=O)Nc3ccc(Br)c(C)c32)oc1C [10730/C11] | 38.4
27 | COc1ccc(C=C2C(=O)Nc3ccc(S(=O)(=O)Nc4ccc(C(F)(F)F)cc4)cc32)c(OC)c1OC [10730/E02] | 17.7

Row | Structure (SMILES) | Biochem EGFR %Inhibition [%]
28 | Cc1c(O)ccc(C=C2C(=O)Nc3ccc(I)cc32)c1O [10718/B09] | -0.8
29 | O=C1Nc2ccc(S(=O)(=O)Nc3ccc(C(F)(F)F)cc3)cc2C1=CC1C=CCCC1 (stereo not shown) [10729/E11] | 25.7
30 | COc1cc(OC)c(OC)cc1C=C1C(=O)Nc2c(Br)cc(Br)cc21 [10730/A03] | 34.4
31 | O=C1Nc2c(Br)cc(Br)cc2C1=Cc1coc2ccc(Cl)cc2c1=O [10730/A06] | 6.7
32 | CSc1ccc(C=C2C(=O)Nc3ccc(CCCl)cc32)cc1 [10729/G04] | 52.9
33 | Cc1cc(C=C2C(=O)Nc3c(Br)cc(Br)cc32)oc1C [10730/A11] | 56.4
34 | O=C1Nc2c(Br)cc(Br)cc2C1=Cc1ccc(Br)cc1 [10717/A08] | 39.1
35 | COc1ccc(C=C2C(=O)Nc3ccc(S(=O)(=O)N4CCOCC4)cc32)c(OC)c1OC [10730/F02] | 2.9
36 | COC1CC(C=C2C(=O)Nc3ccc(S(=O)(=O)Nc4ccc(C(F)(F)F)cc4)cc32)C(OC)O1 (stereo not shown) [10730/E10] | 9.3
37 | CNS(=O)(=O)c1ccc2c(c1)C(=Cc1cc(C)c(C)o1)C(=O)N2 [10730/D11] | 2.0
38 | O=C1Nc2ccc(I)cc2C1=Cc1ccco1 [10718/B10] | 13.7
39 | COc1ccc(C=C2C(=O)Nc3ccc(Br)c(C)c32)c(OC)c1OC [10730/C02] | 2.7
40 | Cc1cc(C=C2C(=O)Nc3ccc(S(=O)(=O)Nc4ccc(C(F)(F)F)cc4)cc32)oc1C [10730/E11] | 19.1
41 | O=C1Nc2c(Br)cc(Br)cc2C1=Cc1ccc(-c2ccccc2Cl)o1 [10730/A07] | 10.4
42 | COc1cc(OC)c(OC)cc1C=C1C(=O)Nc2ccc(Br)c(C)c21 [10730/C03] | -12.1
43 | COc1cc(C=C2C(=O)Nc3ccc(Br)c(C)c32)cc(OC)c1OC [10730/C04] | 0.1
44 | COc1cc(C=C2C(=O)Nc3c(Br)cc(Br)cc32)cc(OC)c1OC [10730/A04] | 37.2
45 | CNS(=O)(=O)c1ccc2c(c1)C(=Cc1cc(OC)c(OC)c(OC)c1)C(=O)N2 [10730/D04] | 10.4
46 | O=C1Nc2ccc(CCCl)cc2C1=Cc1cccc(Oc2ccccc2)c1 [10729/G06] | 15.2
47 | O=C1Nc2ccc(I)cc2C1=Cc1ccc(Cl)c([N+](=O)[O-])c1 [10718/B08] | 28.9
48 | O=C1Nc2ccc(CCCl)cc2C1=CC1C=CCCC1 (stereo not shown) [10729/G11] | 23.4
49 | CCOC(=O)c1c(C)[nH]c(C=C2C(=O)Nc3ccc(Br)c(C)c32)c1C [10718/C02] | -21.9
50 | Cc1c(Br)ccc2c1C(=Cc1ccc(-c3ccccc3Cl)o1)C(=O)N2 [10730/C07] | 20.3
51 | COc1cc(C=C2C(=O)Nc3ccc(S(=O)(=O)N4CCOCC4)cc32)cc(OC)c1OC [10730/F04] | -4.8
52 | CC(=O)n1cc(C=C2C(=O)Nc3ccc(S(=O)(=O)Nc4ccc(C(F)(F)F)cc4)cc32)c2ccccc21 [10730/E05] | 15.8
53 | O=C1Nc2ccc(I)cc2C1=Cc1cc2ccccc2nc1Cl [10730/B08] | 48.4
54 | CNS(=O)(=O)c1ccc2c(c1)C(=Cc1cc3ccccc3nc1Cl)C(=O)N2 [10730/D08] | 44.9

Row | Structure (SMILES) | Biochem EGFR %Inhibition [%]
55 | O=C1Nc2ccc(I)cc2C1=Cc1coc2c(Br)cc(Br)cc2c1=O [10730/B09] | 14.2
56 | O=C1Nc2ccc(CCCl)cc2C1=Cc1ccncc1 [10729/G09] | 20.8
57 | O=C1Nc2ccc(S(=O)(=O)Nc3ccc(C(F)(F)F)cc3)cc2C1=Cc1coc2c(Br)cc(Br)cc2c1=O [10730/E09] | 21.7
58 | O=C1Nc2c(Br)cc(Br)cc2C1=Cc1cc2ccccc2nc1Cl [10730/A08] | 10.4
59 | O=C1Nc2c(Br)cc(Br)cc2C1=Cc1coc2c(Br)cc(Br)cc2c1=O [10730/A09] | 1.1
60 | COc1cc(OC)c(OC)cc1C=C1C(=O)Nc2ccc(S(=O)(=O)Nc3ccc(C(F)(F)F)cc3)cc21 [10730/E03] | 65.3
61 | COc1ccc2ccccc2c1C=C1C(=O)Nc2ccc(CCCl)cc21 [10729/G02] | -4.8
62 | COc1ccc(C=C2C(=O)Nc3c(Br)cc(Br)cc32)c(OC)c1OC [10730/A02] | 27.5
63 | Cc1cc(C=C2C(=O)Nc3ccc(I)cc32)oc1C [10730/B11] | 70.2
64 | O=C1Nc2ccc(S(=O)(=O)Nc3ccc(C(F)(F)F)cc3)cc2C1=Cc1ccc(N2CCCC2)cc1 [10729/E10] | 50.3
65 | CC(=O)n1cc(C=C2C(=O)Nc3ccc(S(=O)(=O)N4CCOCC4)cc32)c2ccccc21 [10730/F05] | -16.3
66 | COc1cc(C=C2C(=O)Nc3ccc(S(=O)(=O)Nc4ccc(C(F)(F)F)cc4)cc32)cc(OC)c1OC [10730/E04] | 13.5
67 | O=C1Nc2ccc(S(=O)(=O)Nc3ccc(C(F)(F)F)cc3)cc2C1=Cc1ccc(-c2ccccc2Cl)o1 [10730/E07] | 18.8
68 | CNS(=O)(=O)c1ccc2c(c1)C(=Cc1cn(C(C)=O)c3ccccc13)C(=O)N2 [10730/D05] | 12.6
69 | COC1CC(C=C2C(=O)Nc3ccc(Br)c(C)c32)C(OC)O1 (stereo not shown) [10730/C10] | 20.5
70 | O=C1Nc2ccc(S(=O)(=O)N3CCOCC3)cc2C1=Cc1cc2ccccc2nc1Cl [10730/F08] | 0.8
71 | CNS(=O)(=O)c1ccc2c(c1)C(=CC1CC(OC)OC1OC)C(=O)N2 (stereo not shown) [10730/D10] | 16.7
72 | CNS(=O)(=O)c1ccc2c(c1)C(=Cc1coc3c(Br)cc(Br)cc3c1=O)C(=O)N2 [10730/D09] | 45.1
73 | CNS(=O)(=O)c1ccc2c(c1)C(=Cc1ccc(OC)c(OC)c1OC)C(=O)N2 [10730/D02] | 18.6
74 | COc1cc(OC)c(OC)cc1C=C1C(=O)Nc2ccc(I)cc21 [10730/B03] | 46.8
75 | CNS(=O)(=O)c1ccc2c(c1)C(=Cc1cc(OC)c(OC)cc1OC)C(=O)N2 [10730/D03] | 9.9
76 | O=C1Nc2ccc(CCCl)cc2C1=Cc1ccccn1 [10729/G07] | -0.8
77 | Cc1c(Br)ccc2c1C(=Cc1cc3ccccc3nc1Cl)C(=O)N2 [10730/C08] | 24.3
78 | COC(=O)c1[nH]c(C)c(C=C2C(=O)Nc3ccc(I)cc32)c1C(=O)OC [10718/B07] | 9.9
79 | COc1ccc(C=C2C(=O)Nc3ccc(CCCl)cc32)c2ccccc12 [10729/G03] | 14.6
